Results reported in patent US6514949B1, “Method compositions for treating the inflammatory response” (University of Virginia Patent Foundation, priority 1994, dated 2003).

Columns and labels:
TNFα-stimulated PMN = test: TNF-stimulated PMN adherence to a fibrinogen-coated surface; format: cell-based, human
Protocol: PMN adherence to fibrinogen was measured as follows as adapted from Hanlon, J. Leukocyte Biol., 50, 43 (1991). Twenty-four well flat-bottomed tissue culture plates were incubated (37° C.) overnight with 0.5 ml of fibrinogen (5 mg/ml) dissolved in 1.5% NaHCO3. The plates were emptied and each well washed 2× with 1 ml of normal saline. The wells were then filled with 1 ml of HBSS-0.1% human serum albumin containing PMN (1×10^6/ml) with and without rhTNFα (1 U/ml), adenosine deaminase (ADA) (1 U/ML), WRC-0474[SHA 211] (10 nM), CGS21680 (30 nM), adenosine (100 nM) and rolipram (100 nM). The plates were incubated for 90 minutes at 37° C. in 5% CO2. Following incubation the tissue culture wells were washed free of non-adherent cells with normal saline. The adherent monolayer of PMN was lysed with 0.1% triton-X, the amount of lactic dehydrogenase (LDH) released from the monolayer assayed (LDH kit, Sigma Co., St. Louis, Mo.), and compared to a standard curve relating the LDH content to PMN numbers.

[1] = test system: TNFα-stimulated adherent human neutrophils; test: TNFα-stimulated superoxide release of PMN adherent to fibrinogen coated surface; format: cell-based; details: for superoxide release of TNFα-stimulated adherent PMN: 300 nM combined with rolipram (100 nM), p<0.05, FIG. 5
Protocol: TNFα-stimulated superoxide release of PMN adherent to a matrix protein (fibrinogen) coated surface. Human PMN (1×10^6/ml) from Ficoll-Hypaque separation were incubated for 90 minutes in 1 ml of Hanks balanced salt solution containing 0.1% human serum albumin, cytochrome c (120 μM), and catalase (0.062 mg/ml) in the presence and absence of rhTNF (1 U/ml), WRC-0474[SHA 211] (10 nM) and rolipram (100 nM) in a tissue culture well which had been coated overnight with human fibrinogen. SOD (200 U/ml) was added to matched samples. The supernatants were iced and centrifuged (2000 g×10 minutes) to remove any remaining suspended cells, and the optical density of the supernatants were read at 550 nm against the matched SOD samples, and the nmoles of SOD-inhibitable superoxide released in 90 minutes were calculated.
Additional effects of adenosine A2A agonists on adherent human neutropbil oxidative activity. The bioactivity of test compounds WRC-0474[SHA 211], WRC-0470, WRC-0090 and WRC-0018 were evaluated according to the following method modified from Sullivan, G. W. et al., Int. J. Immunopharmacol, 17, 793-803 (1995). Neutrophils (1×10^6/ml from Ficoll-Hypaque separation were incubated for 90 minutes in 1 ml of Hanks balanced salt solution containing 0.1% human serum albumin, cytochrome c (120 μM) and catalase (0.062 mg/ml in the presence and absence of rhTNFα (1 U/ml), WRC-0474[SHA 211], WRC-0470, WRC-0090 and WRC-0018 (3-300 nM), and rolipram (100 nM) in a tissue culture well which had been coated overnight with human fibrinogen. The supernatants were iced and centrifuged (200 g×10 min) to remove any remaining suspended cells, and the optical densities of the supernatants were read at 550 nm against matched superoxide dismutase (SOD) (200 U/ml) samples. The nmoles of SOD=inhabitable superoxide released in 90 min were calculated.

[2] = test system: neutrophils in whole blood; test: PMN oxidative activity in whole blood; format: cell-based
Protocol: PMN oxidative activity in whole blood. The following methods were adapted from Rothe, G. A. et al., J. Immunol. Meth., 138, 133-135 (1991). Heparinized whole blood (0.8 ml) was incubated (37°; 30 min) with adenosine deaminase (ADA, 1 U/ml), catalase (14,000 U/ml), ±dihydrorhodamine 123, ±WRC-0470 (3-300 nM), ±rolipram (300 nM) and ±TNFα (10 U/ml). The primed blood samples were stimulated with fMLP (15 min), then iced, the red blood cells lysed with FACS lysing solution (Becton-Dickinson, San Jose, Calif.), washed and the leukocytes resuspended in phosphate-buffered saline (PBS). These samples containing mixed leukocytes were gated for neutrophils by forward and side scatter and the fluorescence of 10,000 neutrophils measured in the FL1 channel of a FACScan (Beckton-Dickinson) fluorescence-activated cell sorter.

Adult wistar rats = test: Rat model of inflammation (bacterial meningitis): CSF WBC pleocytosis and blood-brain barrier permeability; format: in vivo
Protocol: Effects of WRC-0470 and rolipram on the extravasation of white blood cells in a rat model of inflammation. Adult wistar rats (approximately 200 g) were anesthetized with intermuscular injections of ketamine and xylazine. Bacteria meningitis (BM) was introduced via intracistemal inoculation of either E. coli strain 026:B6LPS (200 ng), cytokines (IL-1 and TNFα, or LPS plus cytokines). The animals were then infused with rolipram and/or […] over the duration of the experiment using a Harvard pump. CSF (cerebrospinal fluid) and blood was then sampled at 4 h post-inoculation and alterations in BBBP (blood-brain barrier permeability) and WBC (white blood cell) counts were determined. CSF and WBC concentrations were determined with standard hemacytometer methods. For assessment of % BBBP, rats were given an intravenous injection of 5 μCi 125I-labeled bovine serum albumin concomitant with intracistemal inoculation. Equal samples of CSF and blood were read simultaneously in a gamma counter and after subtraction of background radioactivity, % BBBP was calculated by the following formula: % BBBP=(cpm CSF/cpm blood)×100. All statistical tests were performed using Instat biostatistical software to compare the post-inoculation samples of experimental rats with the control rats. The statistical tests used to generate p-values were Student's t-test and ANOVA.

[3] = test system: TNFα-stimulated adherent neutrophil; test: PMN degranulation (adherent cells), lysozyme release; format: cell-based, human; details: WRC-0470 300 nM with rolipram 300 nM; P=0.027
Protocol: PMN degranulation (adherent cells). The following methods were adapted from Sullivan, G. W. and G. L. Mandell, Infect. Inumun., 30, 272-280 (1980). […] The supernatant fluids with any suspended neutrophils were harvested following incubation, centrifuged (2000 ×g for 10 min) to remove any suspended cells and the cell-free supernatants frozen. Release of lysozyme, a component of neutrophil primary and secondary granules was assayed. Lysis of a suspension of Micrococcus lysodeikticus by the “cell-free supernatant” was measured by spectrophotometric analysis ([…]) to determine the amount of release of granule contents to the surrounding medium.

adherent human monocytes = test: Production of TNFα by purified human adherent monocytes; format: cell-based
Protocol: Production of TNFα by purified human adherent monocytes. A monocyte rich monolayer (>95% monocytes) was prepared by incubating 1 ml of the mononuclear leukocyte fraction (5×10^5/ml) from a Ficoll-Hypaque separation in wells of a 24 well tissue culture plate (1 hr; 37° C.; 5% CO2). […] The samples were incubated for 4 hr (37° C.; 5% CO2) and the supernatants harvested. Any suspended cells were removed by centrifugation and the cell-free samples frozen (−70° C.). TNFα was assayed in the cell-free supernatants by an ELISA kit (Cistron Biotechnology, Pine Brook, N.J.).

Structure (SMILES): CCNC(=O)[C@H]1O[C@@H](n2cnc3c(N)nc(NCCc4ccc(CCC(=O)O)cc4)nc32)[C@H](O)[C@@H]1O [CGS21680]
- TNF-stimulated PMN adherence (TNFα-stimulated PMN; 30 nM, in the presence of ADA, TNF control 38%, p=0.004): 30 % adhered

Structure (SMILES): Nc1nc(OCCc2ccc3ccccc3c2)nc2c1ncn2[C@@H]1O[C@H](CO)[C@@H](O)[C@H]1O [WRC-0018]
- superoxide release of TNFα-stimulated adherent PMN [1]: synergistically decreased superoxide release

Structure (SMILES): Cc1ccc(CCOc2nc(N)c3ncn([C@@H]4O[C@H](CO)[C@@H](O)[C@H]4O)c3n2)cc1 [WRC-0090]
- superoxide release of TNFα-stimulated adherent PMN [1]: synergistically decreased superoxide release

Structure (SMILES): Nc1nc(N/N=C/C2CCCCC2)nc2c1ncn2[C@@H]1O[C@H](CO)[C@@H](O)[C@H]1O [WRC-0470]
- neutrophil oxidative activity in whole blood ([2]; 30-300 nM with rolipram 300 nM, fMLP or TNFα then fMLP): decreased neutrophil oxidative activity synergistically
- oxidative activity of TNFα-primed fMLP-stimulated neutrophils in whole blood ([2]; FIG. 6): decreased oxidative activity
- superoxide release of TNFα-stimulated adherent PMN [1]: synergistically decreased superoxide release
- rank of activity among the four A2A agonists, adherent PMN oxidative activity ([1]; in the presence of rolipram): most active
- blood-brain barrier permeability (% BBBP) (Adult wistar rats; 1.2 μg/kg/hr, rebound effect): returned to control
- blood-brain barrier permeability (% BBBP) (Adult wistar rats; 0.01-0.015 μg/kg/hr, p<0.05 as compared to control, FIG. 9): significant response
- WBC migrated into the sub-arachnoid space (CSF WBC) (Adult wistar rats; WRC-0470 0.1 μg/kg/hr in combination with rolipram 0.001 μg/kg/hr, FIG. 11): 200±70 WBC/μl
- WBC migrated into the sub-arachnoid space (CSF WBC) (Adult wistar rats; WRC-0470 alone (0.1 μg/kg/hr), p<0.050 vs combination): 600±308 WBCs/μl
- CSF WBC pleocytosis (Adult wistar rats; infusion 0.005-1.2 μg/kg/hr, p<0.05 as compared to control, FIG. 8): inhibited pleocytosis
- decrease of TNFα-stimulated adherent neutrophil degranulation [3]: 67%
- endotoxin-stimulated adherent monocyte production of TNFα (adherent human monocytes; ±rolipram, P<0.050, FIGS. 7A and 7B): decreased

Structure (SMILES): Nc1nc(NCCc2ccc(O)cc2)nc2nc(-c3ccco3)nn12 [ZM241385, 4-(2-[7-amino-2-(2-furyl)[1,2,4]-triazolo[2,3a]-[1,3,5]trazinyl-amino]ethyl)-phenol, reference compound]
- antagonism of the effect of WRC-0470 (300 nM) combined with rolipram (300 nM) on TNFα release from monocytes (adherent human monocytes; ZM241385 50 nM, p=0.020, FIG. 7B): significantly inhibited the effect of WRC-0470

Structure (SMILES): Nc1ncnc2c1ncn2[C@@H]1O[C@H](CO)[C@@H](O)[C@H]1O [adenosine]
- TNF-stimulated PMN adherence (TNFα-stimulated PMN; 100 nM, p=0.009 compared to TNF in the presence of ADA): 28 % adhered

Structure (SMILES): COc1ccc(C2CNC(=O)C2)cc1OC1CCCC1 (centres unmarked) [rolipram, 4-(3-cyclopentyloxy-4-methoxyphenyl)-2-pyrrolidone, reference compound]
- alterations of BBBP (Adult wistar rats; 0.002 μg/kg/hr): no significant effect
- inhibition of CSF pleocytosis (Adult wistar rats; 0.01 μg/kg/hr, p<0.05, FIG. 10): 99%
- alterations of BBBP (Adult wistar rats; 0.01 or 0.005 μg/kg/hr, p<0.05): significant inhibition
- WBC migrated into the sub-arachnoid space (CSF WBC) (Adult wistar rats; rolipram alone (0.001 μg/kg/hr), p<0.050 vs combination): 1,670±1,273 WBC/μl
